# Measured values published in US20260250318A1, “COMPOSITIONS AND METHODS FOR CROSSING THE BLOOD BRAIN BARRIER” (VOYAGER THERAPEUTICS, INC., priority 2022, published 2026).
# Test system: brain
# Assay: Maturation of TTM-001 capsid, NGS enrichment in brain of CD-1 Outbred mice
# Format: in vivo
# Conditions: NGS fold-enrichment of TTM-001 matured AAV capsid variants in the brain of CD-1 Outbred mice; intravenous 1.0×10^12 VG/dose; 14 days in life; RNA; relative to non-matured TTM-001 control
# Method in brief: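 Pooled matured TTM-001 or TTM-002 capsid libraries (loop IV region randomized by triple-codon or low-frequency point mutagenesis) dosed IV via tail vein at 1.0×10^12 VG/dose to three female CD-1 mice. Brain RNA taken after 14 days; RT-PCR and NGS gave fold enrichment versus parent TTM-001 or TTM-002 control.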
row,Sequence,Fold enrichment over TTM-001
1,KTINGSGSPHSKRILQQT,2.801 fold
2,KTINGSGSPHSKRINQQT,2.173 fold
3,KTINGSGSPHSKRIVQQT (KTINGSGSPHSKRLVQQT),2.151 fold
4,KTINGSGSPHSKRLAQQT,2.397 fold
5,KTINGSGSPHSKRLLQQT,2.659 fold
6,KTINGSGSPHSKRLMQQT,2.345 fold
7,KTINGSGSPHSKRLPQQT,2.279 fold
8,KTINGSGSPHSKRLRQQT,5.034 fold
9,KTINGSGSPHSKRLTQQT,2.363 fold
10,KTINGSGSPHSKRLYQQT,2.721 fold
11,KTINGSGSPHSKRMSQQT,2.931 fold
12,KTINGSGSPHSKRNGQQT,3.350 fold
13,KTINGSGSPHSKRNLQQT,3.210 fold
14,KTINGSGSPHSKRNVQQT,2.404 fold
15,KTINGSGSPHSKRPFQQT,2.076 fold
16,KTINGSGSPHSKRRLQQT,4.451 fold
17,KTINGSGSPHSKRRNQQT,2.877 fold
18,KTINGSGSPHSKRSFQQT,2.197 fold
19,KTINGSGSPHSKRSIQQT,2.063 fold
20,KTINGSGSPHSKRSLQQT,2.270 fold
21,KTINGSGSPHSKRSMQQT,3.561 fold
22,KTINGSGSPHSKRSNQQT,2.886 fold
23,KTINGSGSPHSKRSWQQT,3.838 fold
24,KTINGSGSPHSKRTAQQT,2.331 fold

row,Sequence,Fold enrichment over TTM-001
1,KTINGSGSPHSKRTFQQT,3.879 fold
2,KTINGSGSPHSKRTLQQT,2.583 fold
3,KTINGSGSPHSKRTPQQT,3.169 fold
4,KTINGSGSPHSKRTSQQT,2.857 fold
5,KTINGSGSPHSKRTYQQT,2.870 fold
6,KTINGSGSPHSKRVGQQT,2.190 fold
7,KTINGSGSPHSKRVLQQT,2.035 fold
8,KTINGSGSPHSKRVPQQT,3.048 fold
9,KTINGSGSPHSKRVSQQT,2.196 fold
10,KTINGSGSPHSKSARQQT,2.067 fold
11,KTINGSGSPHSKSCAQQT,2.348 fold
12,KTINGSGSPHSKSERQQT,2.263 fold
13,KTINGSGSPHSKSFRQQT,3.426 fold
14,KTINGSGSPHSKSHRQQT,2.145 fold
15,KTINGSGSPHSKSIRQQT,2.728 fold
16,KTINGSGSPHSKSLKQQT,2.013 fold
17,KTINGSGSPHSKSNKQQT,2.006 fold
18,KTINGSGSPHSKSRHQQT,2.685 fold
19,KTINGSGSPHSKSRRQQT,4.175 fold
20,KTINGSGSPHSKSRWQQT,3.698 fold
21,KTINGSGSPHSKSVRQQT,2.259 fold
22,KTINGSGSPHSKTCLQQT,3.717 fold
23,KTINGSGSPHSKTCSQQT,2.430 fold
24,KTINGSGSPHSKTGRQQT,2.259 fold

row,Sequence,Fold enrichment over TTM-001
1,KTINGSGSPHSKTIRQQT,2.453 fold
2,KTINGSGSPHSKTLRQQT,3.788 fold
3,KTINGSGSPHSKTNRQQT,2.169 fold
4,KTINGSGSPHSKTRAQQT,2.223 fold
5,KTINGSGSPHSKTRLQQT,2.145 fold
6,KTINGSGSPHSKTRMQQT,2.011 fold
7,KTINGSGSPHSKTSRQQT,2.132 fold
8,KTINGSGSPHSKVARQQT,2.136 fold
9,KTINGSGSPHSKVGRQQT,3.255 fold
10,KTINGSGSPHSKVIRQQT,2.760 fold
11,KTINGSGSPHSKVKPQQT,2.778 fold
12,KTINGSGSPHSKVPKQQT,2.924 fold
13,KTINGSGSPHSKVRAQQT,2.412 fold
14,KTINGSGSPHSKVRVQQT,2.034 fold
15,KTINGSGSPHSKVSRQQT,2.108 fold
16,KTINGSGSPHSKVTRQQT,2.397 fold
17,KTINGSGSPHSKWLLQQT,4.521 fold
18,KTINGSGSPHSKWLVQQT,2.333 fold
19,KTINGSGSPHSKWPGQQT,2.477 fold
20,KTINGSGSPHSKWSLQQT,2.453 fold
21,KTINGSGSPHSKWTLQQT,2.039 fold
22,KTINGSGSPHSKWVSQQT,2.089 fold
23,KTINGSGSPHSKYPSQQT,3.114 fold
